Measurements reported in patent US6586596B2, “Acetylcholine enhancers” (priority 1998, dated 2003).

Tests used:
Cynomologous monkeys [1] = assay: Hepatotoxic analysis, two-week oral study; type: in vivo; conditions: 5 mg/kg/day oral, 2 weeks; for Autopsy, organ weight and histopathology: key: − no remarkable change; ↑ increase; ↓ decrease; + slight; ++ severe (diarrhea); for Blood biochemistry: key: − no remarkable change; ↑ increase; ↓ decrease; + slight; ++ severe (diarrhea); for Body weight: key: − no remarkable change; ↑ increase; ↓ decrease; + slight; ++ severe (diarrhea)
Text: The following parameters were examined: body weight, clinical signs, food consumption, blood biochemistry (GOT, GPT, ALP, LDH, γ-GTP, ChE, Bil, T.Pro, Alb, A/G ratio, T.Cho, NEFA, TG). After the administration period, the animals were sacrificed and autopsied. Organs and tissues were weighed, then examined histopathologically.

Cynomologous monkeys [2] = assay: Hepatotoxic analysis, four-week oral study; type: in vivo; conditions: oral; for Clinical signs vomiting: four weeks (10, 5, 10 mg/kg/day regimens); for Clinical signs vomiting: key: − no remarkable change; ↑ increase; ↓ decrease; + slight; ++ severe (diarrhea)
Protocol: During the testing period, these animals were dosed with three different regimens: first, animals were dosed with 10 mg/kg/day for 7 days, followed by 32 days-washout period, second, animals were dosed with 5 mg/kg/day for 14 days, and thereafter the animals were dosed with 10 mg/kg/day for 7 days. The following parameters were examined: body weight, clinical signs, food consumption, blood biochemistry (GOT, GPT, ALP, LDH, γ-GTP, ChE, Bil, T.Pro, Alb, A/G ratio, T.Cho, NEFA, TG).

[3] = system: extracellular levels of ACh in striatum; assay: ACh release in striatum, microdialysis in freely moving rats; type: in vivo; conditions: for ACh content in perfusate increased up to: striatum, young rats (2 month-old Wistar)
Protocol: ACh content in perfusate obtained from striatum (Bregma, A: 0.2 mm, L: 3.0 mm, H: 4.0 mm) of brain were continuously detected by means of HPLC and ECD through the microdialysis system using freely moving rats. See Messamore, E., et al, 32 Neuropharmacol. […] After an equilibration period of more than 2 hours, five fractions were allowed to obtain basal ACh content. Compounds were injected i.p., and thereafter, a microdialytic analysis was conducted for 3 hours.

5HT3 receptor = biological target: T1, 5HT3 receptor (Rattus norvegicus, UniProt P35563); assay: Ex vivo binding of 5HT3 receptors, (3H)-zacopride autoradiography of brain sections; type: in vivo, Sprague-Dawley rats; conditions: 10 mg/kg i.p., 30 minutes, amygdala, 0.5 nM (3H)-zacopride
T1 construct: from tissue; host or cells: rat brain sections (amygdala)
T1 sequence (P35563 24-483): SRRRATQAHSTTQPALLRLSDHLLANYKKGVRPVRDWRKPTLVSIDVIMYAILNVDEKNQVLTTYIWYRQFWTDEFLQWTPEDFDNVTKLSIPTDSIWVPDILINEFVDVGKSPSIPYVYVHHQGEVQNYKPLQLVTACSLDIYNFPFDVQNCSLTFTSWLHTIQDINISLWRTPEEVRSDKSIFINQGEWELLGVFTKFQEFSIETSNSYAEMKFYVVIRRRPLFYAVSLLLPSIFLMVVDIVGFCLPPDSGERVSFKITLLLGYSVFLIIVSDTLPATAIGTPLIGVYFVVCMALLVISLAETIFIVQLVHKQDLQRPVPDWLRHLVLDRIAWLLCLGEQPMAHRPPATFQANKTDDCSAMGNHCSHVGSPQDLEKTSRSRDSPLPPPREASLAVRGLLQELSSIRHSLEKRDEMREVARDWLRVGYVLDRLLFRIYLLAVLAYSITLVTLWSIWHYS
Protocol: Animals (Sprague-Dawley rats) were injected intraperitoneally with 10 mg/kg Cm. A (in 90% ethanol, 10% water, vehicle) (n=3) or vehicle (n=3). After thirty minutes animals were sacrificed and brains were rapidly dissected and frozen in isopentane maintained at −42° C. Sections (horizontal and coronal) were prepared on a cryostat and maintained at −20° C.
Brain sections were removed from storage and thawed at room temperature for 30 minutes. Total 5HT3 receptor binding was measured in sections incubated with 0.5 nM (^3H)-zacopride (Amerhsam; zacorpide is a 5-HT3 selective ligand) in 50 mM HEPES/TRIS buffer. Nonspecific binding was determined in adjacent sections incubated in the presence of radioligand and 500 nM 5-HT. After a 10 minute incubation at room temperature, sections were washed in icecold buffer (2×1 minute) followed by a 10 second rinse in ice-cold distilled water. Sections were then dried in a stream of cold air overnight. After drying, sections were exposed to x-ray film (Kodak Hyperfilm) and exposed for 4 months.
Autoradiograms were quantified using an automated image analysis system, DAGE camera IMAGE software. Mean optical density measurements were obtained from four individual measurements per group, control (vehicle injected) and Cm. A; background measurements were obtained from an area of x-ray on which no tissue was exposed. […]

[4] = system: scopolamine-induced amnesia; assay: Passive avoidance, scopolamine-induced memory impairment; type: in vivo, male Wistar rats; conditions: 0.1, 0.3 and 3.0 mg/kg oral, 30 minutes before acquisition trial; scopolamine 0.5 mg/kg i.p.
Protocol: (§1) Cutoff latency was set at 600 seconds.
Rats were treated i.p. with scopolamine (0.5 mg/kg) 15 minutes before the acquisition trial.

[5] = system: cycloheximide-induced amnesia; assay: Passive avoidance, cycloheximide-induced memory impairment; type: in vivo, male Wistar rats; conditions: oral, 30 minutes before acquisition trial; cycloheximide 1.5 mg/kg s.q.
Protocol: as §1
Rats were treated s.q. with cycloheximide (1.5 mg/kg), a protein synthesis inhibitor, immediately after the electric shock.

SEP-lesioned rats = assay: Eight-arm radial maze, medial septal nucleus (SEP) lesion-induced deficit; type: in vivo, male Wistar rats; conditions: 3.0 mg/kg/day, repeated treatment for 2 weeks
Protocol: Using male Wistar rats, the anti-amnestic effects of Cm.A on spatial cognition was evaluated using an eight-arm radial maze task. After repeated trials for spatial cognition, memory-established rats (which had more than 7 correct choices and less than one error) were utilized.
SEP (Bregma, A: 0.2 mm, L: −1.0 mm, H: −5.8 mm) was lesioned by microinjection with ibotenic acid (10 μg) similarly to that of the BF lesion of Example 4A(3).

aged rats (22 month-old) = assay: Water maze, aged rats; type: in vivo, male Fischer 344 rats
Text: As compared with young rats, aged rats (22 month-old) were unable shorten the escape latency period. Even after the 11th trial, only a partial decrease in the latency period was evident in the aged rats.

BF-lesioned rats = assay: Water maze, BF lesion-induced deficit in spatial learning; conditions: oral; Cm.A 0.3, 1.0 and 3.0 mg/kg/day, THA 1.0 mg/kg/day, E2020 0.3 and 1.0 mg/kg/day
Protocol: For each training trial, the rat was placed in the water (22° C.) such that the animal faced the wall of a circular pool (150 cm in diameter, 45 cm in height), and started at one of five starting points (selected randornly). In each trial, the latency period to escape onto the hidden platform (fixed in the middle of one quadrant, 2 cm below the surface of water) was recorded. These procedures were repeated once or twice a day during the experimental period.

Compound: COc1c2c(nc3ccccc13)CN(CCC1CCN(Cc3ccccc3)CC1)C2=O [Cm.A, 2-[2-(1-benzylpiperizin-4-yl)ethyl]-2,3-dihydro-9-methoxy-1H-pyrrolo[3,4-b]quinolin-1-one hemifumarate]
- clinical signs during the dosing period (Cynomologous monkeys [1]): caused soft stools, but to a lesser extent than the other two compounds
- hepatotoxicity (Cynomologous monkeys [1]): no hepatotoxicity
- Autopsy, organ weight and histopathology (Cynomologous monkeys [1]; F): −
- Blood biochemistry (Cynomologous monkeys [1]; F): −
- Body weight (Cynomologous monkeys [1]; F): −
- Clinical signs softstool (Cynomologous monkeys [1]; F): +
- Clinical signs vomiting (Cynomologous monkeys [1]; F): −
- Food consumption (Cynomologous monkeys [1]; F): −
- Autopsy, organ weight and histopathology (Cynomologous monkeys [1]; M): −
- Blood biochemistry (Cynomologous monkeys [1]; M): −
- Body weight (Cynomologous monkeys [1]; M): −
- Clinical signs softstool (Cynomologous monkeys [1]; M): +
- Clinical signs vomiting (Cynomologous monkeys [1]; M): −
- Food consumption (Cynomologous monkeys [1]; M): −
- Blood biochemistry (Cynomologous monkeys [2]; F, four weeks): ↑: TG
- Clinical signs softstool (Cynomologous monkeys [2]; F, four weeks): ±
- Food consumption (Cynomologous monkeys [2]; F, four weeks): −
- Clinical signs vomiting (Cynomologous monkeys [2]; F): −
- Blood biochemistry (Cynomologous monkeys [2]; M, four weeks): ↑: TG
- Clinical signs softstool (Cynomologous monkeys [2]; M, four weeks): −
- Food consumption (Cynomologous monkeys [2]; M, four weeks): −
- Clinical signs vomiting (Cynomologous monkeys [2]; M): −
- blood biochemical tests (Cynomologous monkeys [2]; four weeks): small increase in TG
- clinical signs (Cynomologous monkeys [2]; four weeks): minimal adverse clinical signs
- food consumption and body weight (Cynomologous monkeys [2]; four weeks): no remarkable change in food consumption and body weight
- centrally acting cholinergic symptoms (tremor, chewing and yawning) ([3]; striatum study, young rats, i.p., data not shown): few centrally acting cholinergic symptoms
- ACh content in perfusate increased up to ([3]; 10 mg/kg i.p.): 131%
- ACh content in perfusate increased up to ([3]; 30 mg/kg i.p.): 369%
- occupancy of 5HT3 receptor sites within the brain (5HT3 receptor): occupies 5HT3 receptor sites within the brain
- latency in retention trial, reversal of scopolamine effect [4]: significantly reversed the effect of scopolamine
- latency in retention trial, cycloheximide-induced amnesia [5]: prolonged the shortened latency induced by cycloheximide in a nondose dependent manner
- deficit of spatial memory (SEP-lesioned rats): significantly improved the deficit of spatial memory
- deficit of spatial learning (escape latency) (aged rats (22 month-old)): gradually improved the deficit of spatial learning to a level nearly equivalent to young rats
- deficit of spatial learning (escape latency) (BF-lesioned rats): improved the deficit of spatial learning
